Data as given in ChEMBL document CHEMBL6078684, “Discovery of a Novel Non-invasive AR PROTAC Degrader for the Topical Treatment of Androgenetic Alopecia” (J Med Chem, 2024).
Calls of active or inactive are those of the source. The calls are words filed in the database; no cut-off is given here.

Assays:
[1] = Ratio of drug concentration in male ICR mouse skin to kidney at 4 mg/ml, TOP measured after 4 hrs by LC-MS/MS analysis; type: ADME, tissue-based; details: in vivo, topical_or_ocular
[2] = biological target: T1, Protein cereblon/Androgen receptor (Homo sapiens, UniProt P10275+Q96SW2); assay: PROTAC activity at CRBN/AR in human dermal papilla cells assessed as induction of AR degradation at 500 nM in presence of MG132 by Western blot analysis; type: cell-based; details: Human dermal papilla cell
[3] = Ratio of drug concentration in male ICR mouse skin to liver at 4 mg/ml, TOP measured after 1 hrs by LC-MS/MS analysis; type: ADME, tissue-based; details: in vivo, topical_or_ocular
[4] = Ratio of drug concentration in male ICR mouse skin to liver at 4 mg/ml, TOP measured after 8 hrs by LC-MS/MS analysis; type: ADME, tissue-based; details: in vivo, topical_or_ocular
[5] = Ratio of drug concentration in male ICR mouse skin to liver at 4 mg/ml, TOP measured after 2 hrs by LC-MS/MS analysis; type: ADME, tissue-based; details: in vivo, topical_or_ocular
[6] = Ratio of drug concentration in male ICR mouse skin to plasma at 4 mg/ml, TOP measured after 12 hrs by LC-MS/MS analysis; type: ADME, cell-free; details: other tissue, topical_or_ocular
[7] = Drug uptake in male Sprague-Dawley rat Dorsal skin assessed as retention rat at 1 mg/ml, TOP measured after 30 mins by LC-MS/MS analysis; type: ADME, tissue-based, Zone of skin; details: in vivo, topical_or_ocular, 0.5 h
[8] = Ratio of drug concentration in male ICR mouse skin to spleen at 4 mg/ml, TOP measured after 1 hrs by LC-MS/MS analysis; type: ADME, tissue-based; details: in vivo, topical_or_ocular
[9] = biological target: T1, Protein cereblon/Androgen receptor; assay: PROTAC activity at CRBN/AR in human dermal papilla cells assessed as decrease in AR protein level at 250 to 1000 nM preincubated with testosterone for 24 hrs followed by compound addition and measured after 48 hrs by Western blot analysis; type: cell-based; details: Human dermal papilla cell, dose 250-1000 nM
[10] = Ratio of drug concentration in male ICR mouse skin to lungs at 4 mg/ml, TOP measured after 1 hrs by LC-MS/MS analysis; type: ADME, tissue-based, Skin/Lung; details: in vivo, topical_or_ocular
[11] = Ratio of drug concentration in male ICR mouse skin to liver at 4 mg/ml, TOP measured after 4 hrs by LC-MS/MS analysis; type: ADME, tissue-based; details: in vivo, topical_or_ocular
[12] = tested on: Mus musculus; assay: Hair regeneration efficacy in testosterone induced male C57BL/6 mouse androgenetic alopecia model at 0.1 to 0.4 %, TOP administered once daily for 14 days and measured after 21 days with co-administration of 0.2% testosterone for 28 days by photographic analysis; type: functional, organism-based; details: dose 0.1-0.4 %, time 14.0 day
[13] = Ratio of drug concentration in male ICR mouse skin to plasma at 4 mg/ml, TOP measured after 0.25 hrs by LC-MS/MS analysis; type: ADME, cell-free; details: topical or ocular
[14] = Ratio of drug concentration in male ICR mouse skin to kidney at 4 mg/ml, TOP measured after 12 hrs by LC-MS/MS analysis; type: ADME, tissue-based; details: in vivo, topical_or_ocular
[15] = tested on: Mus musculus; assay: Hair regeneration efficacy in testosterone induced male C57BL/6 mouse androgenetic alopecia model assessed as improvement in morphology of regenerated hair at 0.1 %, TOP administered once daily for 14 days with co-administration of 0.2% testosterone and measured after 28 days by SEM analysis; type: functional, organism-based; details: time 28.0 day
[16] = Ratio of drug concentration in male ICR mouse skin to kidney at 4 mg/ml, TOP measured after 0.5 hrs by LC-MS/MS analysis; type: ADME, tissue-based; details: in vivo, topical_or_ocular

T1 sequence (P10275 whole entry, looked up): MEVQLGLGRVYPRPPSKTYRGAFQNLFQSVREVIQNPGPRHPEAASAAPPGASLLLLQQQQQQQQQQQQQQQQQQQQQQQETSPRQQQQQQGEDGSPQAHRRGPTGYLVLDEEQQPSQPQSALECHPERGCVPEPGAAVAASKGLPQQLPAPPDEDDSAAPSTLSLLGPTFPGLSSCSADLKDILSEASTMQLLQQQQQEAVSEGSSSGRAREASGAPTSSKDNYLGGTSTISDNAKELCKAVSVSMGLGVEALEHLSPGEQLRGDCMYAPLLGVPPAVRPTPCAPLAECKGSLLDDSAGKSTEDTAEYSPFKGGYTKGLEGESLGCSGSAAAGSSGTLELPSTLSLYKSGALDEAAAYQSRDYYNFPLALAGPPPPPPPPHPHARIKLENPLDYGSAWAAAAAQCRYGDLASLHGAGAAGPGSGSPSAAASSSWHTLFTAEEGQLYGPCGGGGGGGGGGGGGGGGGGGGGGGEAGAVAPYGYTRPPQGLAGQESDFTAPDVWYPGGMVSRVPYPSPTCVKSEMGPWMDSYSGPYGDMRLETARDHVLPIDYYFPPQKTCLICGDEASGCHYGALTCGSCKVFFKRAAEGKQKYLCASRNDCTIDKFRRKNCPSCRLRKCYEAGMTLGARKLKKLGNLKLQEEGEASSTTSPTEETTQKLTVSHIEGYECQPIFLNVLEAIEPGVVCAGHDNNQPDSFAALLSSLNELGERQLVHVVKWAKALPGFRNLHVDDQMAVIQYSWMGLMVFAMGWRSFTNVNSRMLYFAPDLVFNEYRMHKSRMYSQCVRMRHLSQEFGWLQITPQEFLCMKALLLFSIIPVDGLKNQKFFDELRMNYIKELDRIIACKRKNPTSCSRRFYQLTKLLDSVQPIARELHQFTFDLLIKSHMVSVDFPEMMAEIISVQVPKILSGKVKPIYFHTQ
T1 sequence (Q96SW2 whole entry, looked up): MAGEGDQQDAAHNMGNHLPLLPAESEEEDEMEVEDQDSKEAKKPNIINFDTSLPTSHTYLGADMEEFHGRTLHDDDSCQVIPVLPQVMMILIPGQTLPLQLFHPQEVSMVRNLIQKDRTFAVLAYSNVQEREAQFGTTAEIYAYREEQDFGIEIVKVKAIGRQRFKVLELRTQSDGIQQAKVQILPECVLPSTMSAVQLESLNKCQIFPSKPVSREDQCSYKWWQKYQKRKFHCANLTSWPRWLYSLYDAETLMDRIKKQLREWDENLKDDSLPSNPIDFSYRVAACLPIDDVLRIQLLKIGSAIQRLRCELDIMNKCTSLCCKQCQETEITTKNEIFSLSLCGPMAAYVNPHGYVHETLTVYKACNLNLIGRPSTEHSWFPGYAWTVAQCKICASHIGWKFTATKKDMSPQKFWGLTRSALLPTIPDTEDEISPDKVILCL

For N#Cc1ccc(O[C@H]2CC[C@H](NC(=O)c3ccc(C4CCN(CC5CCCN(c6ccc(C(=O)NC7CCC(=O)NC7=O)cc6)C5)CC4)cc3)CC2)cc1Cl (stereo partly specified), the Ratio [1] was 285.69, the Activity [2] was “Not active; Compound Activity Dependent On Ubiquitin-Proteosome System” and the Ratio [3] was 485.29. For the same compound, the Ratio [4] was 196.27, the Ratio [5] was 441.98 and the Ratio [6] was 1736.28. For the same compound, the Drug uptake [7] was 2.48%, the Ratio [8] was 472.95 and the Activity [9] was “Active”. The Ratio [10] was 476.62, the Ratio [11] was 629.99 and the Activity [12] was “Active”. For the same compound, the Kp at 0.25 h [13] was 117, the Ratio [14] was 101.26 and the Activity [15] was “Active”. For the same compound, the Ratio [16] was 190.39.
